The structures appear in SMILES notation.

For 1 compound, Relative fluorescence intensity results are on record in US20190018003A1, “TUMOR DISCRIMINATION METHOD, DIAGNOSTIC AGENT FOR TUMOR, AND SENSITIZER FOR TUMOR DIAGNOSIS” (TOTO LTD., priority 2017, published 2019).

Experiment [1] concerns UM-UC-3 urinary bladder cancer cells. The experiment in a line: Fluorescence enhancement in UM-UC-3 cells by separate administration of fluorescent dye (ALA) and particles, fluorescence microscope. It is filed as cell-based, human. Conditions: Example 5, ALA 2 mmol/l, particles 0.001 w/v %, immediately after observation light irradiation. As to the method:
UM-UC-3 cells (UMUC3, ATCC CRL-1749) were prepared. This cell line was subcultured in an E-MEM medium (ATCC-formulated Eagle's Minimum Essential Medium (ATCC), 10 v/v % FBS (Life Technologies)). The cultured cells which reached a logarithmic growth phase 3 days or 4 days later were peeled off with Trypsin/EDTA (Thermo Fisher Scientific) and, after the reaction was terminated in an E-MEM medium, centrifuged. The cell pellet obtained was suspended in an E-MEM medium. The cell suspension was subjected to measurement of cell density, inoculated onto a 6-well plate at a density of 3.6×10^4 cells/2 ml/well, and cultured for 3 days. […]
Evaluation was performed as follows. The medium of the UM-UC-3 cells on a 6-well plate, obtained in Example 3, was removed by an aspirator, and evaluation thereof was performed under conditions where PBS (−) and HBSS (−) in Example 4 were changed to the E-MEM medium and the MEM medium (no glutamine and no phenol red (Thermo Fisher Scientific), respectively, and the solution was used for detection of fluorescence.
Detection of fluorescence was performed in the same manner as in Example 4 by using an inverted fluorescence microscope (ECLIPSE Ti-E, Nikon). A fluorescence intensity was calculated by subtracting luminance corresponding to dark noise from the image acquired and thereafter obtaining average luminance of all pixels where fluorescence was acquired. […]

Experiment [2] has as its system WI-38 immortalized normal cells. The experiment in a line: Discrimination test, fluorescence in WI-38 immortalized normal cells after ALA and particles (separate plates). The format is cell-based, human. Conditions: Example 10; WI-38 cell line; ALA 2 mmol/l, particles 0.001 w/v %. As to the method:
Immortalized cell line WI-38 cells (WI-38 VA13 sub 2 RA, JCRB9057) of normal diploid fibroblast cell line WI-38 were prepared. This cell line was subcultured in an MEM medium (MEM, GlutaMAX™ supplement (Thermo Fisher Scientific), 10 v/v % FBS (Thermo Fischer Scientific)). The cultured cells which reached a logarithmic growth phase 3 days or 4 days later were peeled off with Trypsin/EDTA (Thermo Fisher Scientific) and, after the reaction was terminated in an MEM medium, centrifuged. The cell pellet obtained was suspended in an MEM medium. The cell suspension was subjected to measurement of cell density, inoculated onto a 6-well plate at a density of 5.0×10^4 cells/2 ml/well, and cultured for 3 days.
An aqueous ALA solution (50 mmol/l) was mixed into an MEM medium (MEM, GlutaMAX™ supplement (Thermo Fisher Scientific)) to form a 2 mmol/l ALA solution. Further, an aqueous solution of light scattering particles (2) (ii) was mixed into an MEM medium to form a 0.001 w/v % light scattering particle solution.
The media of the T24 cells and the WI-38 cells on 6-well plates, obtained in Example 3, were respectively removed by an aspirator, and detection was performed in the same manner as in Example 4, and relative fluorescence intensities were calculated.

Regarding `NCC(=O)CCC(=O)O` [fluorescent dye, 5-aminolevulinic acid], the Relative fluorescence intensity in experiment [1] came out at 1.0; in experiment [2] it was 0.7.
